Experimental data published in patent EP1379634B1 (THE UNIVERSITY OF GEORGIA RESEARCH FOUNDATION, INC., priority 2001, dated 2002).
Residues, ends and D or L forms follow the SMILES beside them. *: point of attachment. AFC = O=c1cc(C(F)(F)F)c2ccc(N*)cc2o1; Cbz = O=C(OCc1ccccc1)*

How the values were obtained:
[1] = system: purified Taenia solium cysteine protease; test: Substrate cleavage screen of AFC-linked peptides (Step II), purified protease; format: biochemical; conditions: 0.4 M Citrate, pH 4.9, 0.01 M cysteine, 18 h, 37 °C
Description: In this step, the most efficacious substrate for detection of the cysteine protease (high Kcat substrate) was determined in vitro along with those substrates which were not well cleaved (low kcat substrates). From this point forward, the following conditions refer to all assays: "assay buffer" refers to 0.4 M Citrate, pH 4.9 (the pH optima of the protease). Incubation time was 18 hours at 37°C. These conditions were determined by our preliminary data to be best for kinetic evaluation of the protease. […] The experiments were conducted in 6X50 […] Borosilicate mini-culture tubes (Fisher Scientific), and a fluorometer (Turner) was employed for detection of AFC cleavage.
Since the full 8,420 amino acid possibilities for cleavage were not available, representative substrates were employed. […] In order to choose this subset, representative amino acids (i.e., selected from the categories of acidic, basic, nonpolar, uncharged) were chosen so as to create as many categories of motifs as feasible for the P3-P1 positions with a set of 67 small peptides (see lists at Fig. 4a and Fig. 4b). The target cysteine protease from Taenia solium was isolated using the purification methods described previously in the patent WO 00/63350.
Approximately 1 ug (or a proteolytically detectable amount) of the purified target cysteine protease was incubated individually, with 1 ug of each of the available substrates in 500 uL of assay buffer. During this setup, the substrate was pre-incubated in the assay buffer for a short period of time (20 minutes) in order to reach an equilibrated status before the addition of the protease. Cleavage assessments were based upon the property of the protease to cleave synthetic peptide substrates linked at the C-terminus to 7-Amino-4-Trifluoromethyl Coumarin (AFC) as previously described. AFC linked tripeptides, dipeptides, and monopeptides, (with a variety of permutations at P3-P1) were available from Enzyme Systems Products (Livermore, CA), and were used as the source of the subset. Following incubation of enzyme preparations overnight (18 h, 37 °C) with peptide in assay buffer (Citrate, pH 4.9, supplemented with 0.01 M cysteine), free AFC concentrations were measured fluorometrically (excitation 405 nm, emission 505 nm). The proteolytic cleavage released the AFC group, which was measurable as a free molecule by a standard fluorometer and converted into molar quantities, based upon a previously established standard curve. The simplicity of AFC detection by the fluorometer was a key factor which expedited and simplified the procedures.
In the assay, 1 ug of the purified Taenia cysteine protease was added to a saturating amount of Z-Phe-Arg-AFC (4X10^-5 M) in assay buffer. The experiment was conducted in triplicate and repeated at least 5 times until we were certain that variability in AFC cleavage was not statistically significant.
Vmax for the cleavage of substrates by the purified target protease and Vmax for substrates cleaved by the crude mix protease were each calculated using conventional kinetic modeling calculations already described in the art.

[2] = system: purified Taenia solium cysteine protease; test: Competitor assay of low Vmax substrates (vehicles) against high Vmax substrate cocktails (Step III), purified protease; format: biochemical; conditions: for inhibition with the 1.4% cocktail: 1.4% cocktail (Z-FR-AFC 1X10^-6 M); for inhibition with the final cocktail (7.4%): 7.4% cocktail (five high Vmax substrates, 1X10^-6 M each); for Ki of vehicle: Dixon plot, data not shown
Description: The top 1.4% of substrates (out of 67) in the full panel of substrates with the highest Vmax values were chosen to compose a "TOP 1.4% cocktail". (We employed "Vmax" here although Kcat could also be used). Due to the lower number of substrates, a percentage was not chosen for the "BOTTOM %" substrates. Alternately, all substrates which were not cleaved as determined by a value of 10 uM/hr or less, were chosen to be tested in this step for competitive ability. Hereinafter the term "vehicle" will represent low Vmax substrates that were capable of inhibiting cleavage of the percent cocktails. In this instance, we tested for "vehicles" which inhibited cleavage of the TOP 1.4% cocktail (they were delivered into the active site). Based upon our results from Step II, the top 1.4% cocktail was composed of Z-Phe-Arg-AFC, the highest cleaved substrate.
The experiment began with a competitor test between the noncleaved low Vmax substrates and the highest Vmax substrate, Z-Phe-Arg-AFC. Concentrations were varied between the low Vmax substrate and Z-Phe-Arg-AFC, as described above under "refinement of assay" until a relative inhibition profile was obtained.
The mixture was allowed to equilibrate for a period of 30 minutes. Finally, active purified enzyme was added to the tubes at a concentration that was always 50 times less than the concentration of the high and low Vmax substrates, respectively, in order to insure saturation conditions. This concentration varied from purification to purification and the amount added depended upon the yield and specific activity of the purified protease.
Positive controls were set up in a manner similar to that described for test controls, except that solvent was added in substitution for the low Vmax substrate (in a volume equal to the low Vmax volume addition). All of the substrates could be dissolved in dimethylsulfoxide (DMSO), and therefore, this was the solvent of choice. Negative controls were set up by adding the low Vmax and the high Vmax substrate in a tube without the protease. All potential non-proteolytic induced liberation of AFC was therefore controlled for in this tube (a feature which also monitored stability of the AFC substrates, since these substrates will freely liberate AFC when unstable). A tube set was established for this negative control.
All controls were set up in triplicate, and experiments were repeated a minimum of five times. The assays were incubated at 37°C, for 18 hours overnight.
Percent inhibition was calculated as: %Inhibition = ((AFC positive for "Y"−AFC negative for "Y")−(AFC test−AFC negative for "Y"))/(AFC positive for "Y"−AFC negative for "Y") × 100 [formula]
A 2.9% cocktail of the high Vmax substrates was made. This was composed of Z-FR-AFC and the second most cleaved substrate, Z-FAR-AFC. The vehicles promoted from the initial screenings above were again tested for competitive inhibition ability with the new cocktails. Their concentrations were set identically to those which were "fixed" in the previous protocols. In other words, 8X10^-6 M of the vehicle was added to the culture tube with 1X10^-6 M of Z-FR-AFC and 1X10^-6 M of Z-FAR-AFC. Active protease was added last at a concentration that was 50 times less than the concentration of the high Vmax substrate (to ensure saturating conditions).
In similar experimental fashion, a 4.4%, 5.9%, and 7.4% cocktail were tested with each of the promising vehicles. Each increase in the percentage represented an increase by an additional high Vmax substrate. Each of the individual components in the cocktail were added at 1X10^-6 M each, to 8X10^-6 M of the vehicle. The composition of the cocktails was as follows: 4.4% cocktail: Z-FR-AFC, Z-FAR-AFC, and Z-AAK-AFC (third highest cleaved substrate); 5.9% cocktail: Z-FR-AFC, Z-FAR-AFC, Z-AAK-AFC, and AP-AFC (fourth highest cleaved substrate); 7.4% cocktail: […], Z-FAR-AFC, Z-AAK-AFC, AP-AFC, and Z-VLR-AFC. […]

Compound	cleavage of AFC substrate (Vmax) [1]	inhibition with the 1.4% cocktail ([2]; vehicle 8X10^-6 M)	inhibition with the final cocktail (7.4%) ([2]; vehicle 8X10^-6 M)	Ki of vehicle [2]	cleavage of AFC substrate (Vmax) ([1]; listed as M-LY-AFC)	V Value ([2]; V = P * M, P inhibition with first (1.4%) cocktail, M with last (7.4%) cocktail, vehicle 8X10^-6 M, each cocktail substrate 1X10^-6 M)
CC(C)C[C@H](NC(=O)OCc1ccccc1)C(=O)N[C@@H](CC(C)C)C(=O)N[C@@H](CC(C)C)C(=O)Nc1ccc2c(C(F)(F)F)cc(=O)oc2c1 [Z-LLL-AFC, Z-Leu-Leu-Leu-AFC] (Cbz-Leu-Leu-Leu-{AFC})	noncleavable	greater than 20%	≥ 50%	low Ki value		
Mu-Leu-Tyr-AFC [Mu-LY-AFC]	not cleaved		≥ 50%	low Ki value	noncleavable	0.450
CC(C)C[C@H](NC(=O)OCc1ccccc1)C(=O)N[C@@H](CC(C)C)C(=O)N[C@@H](Cc1ccc(O)cc1)C(=O)Nc1ccc2c(C(F)(F)F)cc(=O)oc2c1 [Z-LLY-AFC, Z-Leu-Leu-Tyr-AFC] (Cbz-Leu-Leu-Tyr-{AFC})	noncleavable	greater than 20%	≥ 50%	low Ki value		
